These results are taken from US20240299385A1 (ReWind Therapeutics NV, priority 2021, published 2024).

The term IC50 denotes the concentration at which inhibition is half-maximal.

This assay deals with T1, human GPR17 receptor (Homo sapiens, UniProt Q13304).
T1 construct: host or cells: HEK-293
T1 sequence (Q13304 whole entry): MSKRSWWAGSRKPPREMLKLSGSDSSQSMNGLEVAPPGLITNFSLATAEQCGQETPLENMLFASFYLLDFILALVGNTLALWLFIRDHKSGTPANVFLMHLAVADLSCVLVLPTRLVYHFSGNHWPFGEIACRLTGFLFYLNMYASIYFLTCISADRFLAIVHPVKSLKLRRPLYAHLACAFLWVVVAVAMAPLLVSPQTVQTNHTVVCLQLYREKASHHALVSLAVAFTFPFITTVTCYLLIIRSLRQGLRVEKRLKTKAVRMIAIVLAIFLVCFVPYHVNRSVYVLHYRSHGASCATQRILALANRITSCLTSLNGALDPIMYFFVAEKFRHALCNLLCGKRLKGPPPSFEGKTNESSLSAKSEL
The experiment in a line: Calcium mobilization functional assay (Fluo-8, FLIPR TETRA) in HEK-293 hGPR17 (Gα-q assay). Conditions: antagonism of MDL29,951 (~EC80) induced Ca2+ signal; cell line (HEK-293 hGPR17 or HEK-293 Suchi5 hGPR17) not given. The class given is cell-based. Put shortly: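 Fluo-8-loaded HEK-293 hGPR17 cells (60 min dye loading, room temperature) were preincubated with compound for twenty minutes, then challenged with agonist MDL29,951 at ~EC80, 500 nM. Intracellular calcium release via Gα-q was recorded as FLIPR fluorescence for a further 2 minutes; compounds tested in duplicate.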
For orientation: A change in cytosolic calcium serves as a functional read-out for many receptors and channels.
In the case of `N#Cc1cc(F)c(NS(=O)(=O)c2c[nH]cc2Cc2cccc(OC(F)F)c2)cc1F` [Cpd 548, N-(4-cyano-2,5-difluorophenyl)-4-[[3-(difluoromethoxy)phenyl]methyl]-1H-pyrrole-3-sulfonamide], the IC50 was less than 500 nM.
The figure for `N#Cc1cc(F)c(NS(=O)(=O)c2c[nH]c(C3CCC3)c2)cc1F` [Cpd 549, N-(4-cyano-2,5-difluorophenyl)-5-cyclobutyl-1H-pyrrole-3-sulfonamide] is less than 500 nM.
Next, `O=S(=O)(Nc1cc(F)c(OC(F)F)cc1F)c1c[nH]c(C2CCC2)c1` [Cpd 550, 5-cyclobutyl-N-[4-(difluoromethoxy)-2,5-difluorophenyl]-1H-pyrrole-3-sulfonamide]: less than 500 nM.
The figure for `O=S(=O)(Nc1cc(F)c(Br)cc1F)c1c[nH]c(C2CCC2)c1` [Cpd 551, N-(4-bromo-2,5-difluorophenyl)-5-cyclobutyl-1H-pyrrole-3-sulfonamide] is less than 500 nM.
In the case of `O=S(=O)(Nc1cc(F)c(OC(F)F)cc1F)c1c[nH]c(-c2cccc3cccnc23)c1` [Cpd 552, N-[4-(difluoromethoxy)-2,5-difluorophenyl]-5-quinolin-8-yl-1H-pyrrole-3-sulfonamide], the IC50 is 500 to 5000 nM.
The figure for `O=S(=O)(Nc1cc(F)c(OC(F)F)cc1F)c1c[nH]c(-c2cccc3ccoc23)c1` [Cpd 553, 5-(1-benzofuran-7-yl)-N-[4-(difluoromethoxy)-2,5-difluorophenyl]-1H-pyrrole-3-sulfonamide] is 500 to 5000 nM; for `N#Cc1ccc(F)c(-c2cc(S(=O)(=O)Nc3cc(F)c(C(F)(F)F)cc3F)c[nH]2)c1` [Cpd 554, 5-(5-cyano-2-fluorophenyl)-N-[2,5-difluoro-4-(trifluoromethyl)phenyl]-1H-pyrrole-3-sulfonamide] it is less than 500 nM; for `Cn1cccc(-c2cc(S(=O)(=O)Nc3cc(F)c(C(F)(F)F)cc3F)c[nH]2)c1=O` [Cpd 555, N-[2,5-difluoro-4-(trifluoromethyl)phenyl]-5-(1-methyl-2-oxopyridin-3-yl)-1H-pyrrole-3-sulfonamide] it is less than 500 nM.
The figure for `O=S(=O)(Nc1cc(F)c(C(F)(F)F)cc1F)c1c[nH]c(-c2cnccc2Cl)c1` [Cpd 556, 5-(4-chloropyridin-3-yl)-N-[2,5-difluoro-4-(trifluoromethyl)phenyl]-1H-pyrrole-3-sulfonamide] is less than 500 nM; for `O=S(=O)(Nc1cc(F)c(C(F)(F)F)cc1F)c1c[nH]c(-c2c(F)ccnc2F)c1` [Cpd 557, 5-(2,4-difluoropyridin-3-yl)-N-[2,5-difluoro-4-(trifluoromethyl)phenyl]-1H-pyrrole-3-sulfonamide] it is less than 500 nM; for `O=S(=O)(Nc1cc(F)c(C(F)(F)F)cc1F)c1c[nH]cc1Cc1cccc(OC(F)F)c1` [Cpd 558, 4-[[3-(difluoromethoxy)phenyl]methyl]-N-[2,5-difluoro-4-(trifluoromethyl)phenyl]-1H-pyrrole-3-sulfonamide] it is 500 to 5000 nM.
Next, `O=S(=O)(Nc1cc(F)c(C(F)(F)F)cc1F)c1c[nH]c(-c2cnsc2)c1` [Cpd 559, N-[2,5-difluoro-4-(trifluoromethyl)phenyl]-5-(1,2-thiazol-4-yl)-1H-pyrrole-3-sulfonamide]: less than 500 nM; `COCc1cccnc1-c1cc(S(=O)(=O)Nc2cc(F)c(C(F)(F)F)cc2F)c[nH]1` [Cpd 560, N-[2,5-difluoro-4-(trifluoromethyl)phenyl]-5-[3-(methoxymethyl)pyridin-2-yl]-1H-pyrrole-3-sulfonamide]: 5000 to 50000 nM.
On to `O=S(=O)(Nc1cc(F)c(Br)cc1F)c1c[nH]c(-c2cccc3ccoc23)c1` [Cpd 561, 5-(1-benzofuran-7-yl)-N-(4-bromo-2,5-difluorophenyl)-1H-pyrrole-3-sulfonamide], for which the IC50 fell in the range of 500 to 5000 nM.
The figure for `N#Cc1ccc(NS(=O)(=O)c2c[nH]c(-c3csc(Cl)c3)c2)c(F)c1` [Cpd 562, 5-(5-chlorothiophen-3-yl)-N-(4-cyano-2-fluorophenyl)-1H-pyrrole-3-sulfonamide] is less than 500 nM; for `N#Cc1ccc(NS(=O)(=O)c2c[nH]c(-c3cc(Cl)cs3)c2)c(F)c1` [Cpd 563, 5-(4-chlorothiophen-2-yl)-N-(4-cyano-2-fluorophenyl)-1H-pyrrole-3-sulfonamide] it is less than 500 nM; for `N#Cc1cccc(-c2cc(S(=O)(=O)Nc3cc(F)c(C(F)(F)F)cc3F)c[nH]2)c1F` [Cpd 564, 5-(3-cyano-2-fluorophenyl)-N-[2,5-difluoro-4-(trifluoromethyl)phenyl]-1H-pyrrole-3-sulfonamide] it is 500 to 5000 nM.
Next, `O=S(=O)(Nc1cc(F)c(C(F)(F)F)cc1F)c1c[nH]c(-c2cccn3ccnc23)c1` [Cpd 565, N-[2,5-difluoro-4-(trifluoromethyl)phenyl]-5-imidazo[1,2-a]pyridin-8-yl-1H-pyrrole-3-sulfonamide]: 500 to 5000 nM; `O=S(=O)(Nc1cc(F)c(C(F)(F)F)cc1F)c1c[nH]c(-c2cccc3ccnn23)c1` [Cpd 566, N-[2,5-difluoro-4-(trifluoromethyl)phenyl]-5-pyrazolo[1,5-a]pyridin-7-yl-1H-pyrrole-3-sulfonamide]: 500 to 5000 nM.
As for `O=S(=O)(Nc1cc(F)c(C(F)(F)F)cc1F)c1c[nH]c(-c2ccc3cccnn23)c1` [Cpd 567, N-[2,5-difluoro-4-(trifluoromethyl)phenyl]-5-pyrrolo[1,2-b]pyridazin-7-yl-1H-pyrrole-3-sulfonamide], the IC50 was less than 500 nM.
Regarding `O=S(=O)(Nc1cc(F)c(C(F)(F)F)cc1F)c1c[nH]cc1Cc1cccc(Cl)c1` [Cpd 568, 4-[(3-chlorophenyl)methyl]-N-[2,5-difluoro-4-(trifluoromethyl)phenyl]-1H-pyrrole-3-sulfonamide], the IC50 lay in the range of 500 to 5000 nM.
For `N#Cc1cc(F)c(NS(=O)(=O)c2c[nH]cc2Cc2cccc(Cl)c2)cc1F` [Cpd 569, 4-[(3-chlorophenyl)methyl]-N-(4-cyano-2,5-difluorophenyl)-1H-pyrrole-3-sulfonamide], the IC50 is less than 500 nM.
With `N#Cc1ccc(NS(=O)(=O)c2c[nH]c(-c3ccc(F)s3)c2)c(F)c1` [Cpd 570, N-(4-cyano-2-fluorophenyl)-5-(5-fluorothiophen-2-yl)-1H-pyrrole-3-sulfonamide], the IC50 is less than 500 nM.
Next, `CC1(C)CC(c2cc(S(=O)(=O)Nc3cc(F)c(C(F)(F)F)cc3F)c[nH]2)C1` [Cpd 571, N-[2,5-difluoro-4-(trifluoromethyl)phenyl]-5-(3,3-dimethylcyclobutyl)-1H-pyrrole-3-sulfonamide]: 5000 to 50000 nM; `N#Cc1cc(F)c(NS(=O)(=O)c2c[nH]c(-c3cccc4ccsc34)c2)cc1F` [Cpd 572, 5-(1-benzothiophen-7-yl)-N-(4-cyano-2,5-difluorophenyl)-1H-pyrrole-3-sulfonamide]: less than 500 nM; `O=S(=O)(Nc1cc(F)c(C(F)(F)F)cc1F)c1c[nH]c(-c2ncccc2CF)c1` [Cpd 573, N-[2,5-difluoro-4-(trifluoromethyl)phenyl]-5-[3-(fluoromethyl)pyridin-2-yl]-1H-pyrrole-3-sulfonamide]: 500 to 5000 nM.
Next, `N#Cc1cccc(Cc2c[nH]cc2S(=O)(=O)Nc2cc(F)c(C(F)(F)F)cc2F)c1` [Cpd 574, 4-[(3-cyanophenyl)methyl]-N-[2,5-difluoro-4-(trifluoromethyl)phenyl]-1H-pyrrole-3-sulfonamide]: 500 to 5000 nM.
The figure for `N#Cc1cc(F)c(NS(=O)(=O)c2c[nH]c(-c3cccc(Cl)n3)c2)cc1F` [Cpd 575, 5-(6-chloropyridin-2-yl)-N-(4-cyano-2,5-difluorophenyl)-1H-pyrrole-3-sulfonamide] is less than 500 nM.
In the case of `N#CCOc1cc(F)c(NS(=O)(=O)c2c[nH]c(-c3ccccc3)c2)cc1Cl` [Cpd 576, N-[5-chloro-4-(cyanomethoxy)-2-fluorophenyl]-5-phenyl-1H-pyrrole-3-sulfonamide], the concentration for half-maximal inhibition (IC50) was 500 to 5000 nM.
As to `Cc1cc(F)cnc1-c1cc(S(=O)(=O)Nc2ccc(C#N)cc2F)c[nH]1` [Cpd 577, N-(4-cyano-2-fluorophenyl)-5-(5-fluoro-3-methylpyridin-2-yl)-1H-pyrrole-3-sulfonamide], the IC50 was less than 500 nM.
On to `N#CCOc1cc(F)c(NS(=O)(=O)c2c[nH]c(C3CCC3)c2)cc1F` [Cpd 578, N-[4-(cyanomethoxy)-2,5-difluorophenyl]-5-cyclobutyl-1H-pyrrole-3-sulfonamide], for which the IC50 is less than 500 nM.
Next, `O=S(=O)(Nc1cc(F)c(C(F)(F)F)cc1F)c1c[nH]c(-c2ncccc2C(F)F)c1` [Cpd 580, 5-[3-(difluoromethyl)pyridin-2-yl]-N-[2,5-difluoro-4-(trifluoromethyl)phenyl]-1H-pyrrole-3-sulfonamide]: 500 to 5000 nM; `N#Cc1ccc(NS(=O)(=O)c2c[nH]c(-c3ncccc3C(F)F)c2)c(F)c1` [Cpd 581, N-(4-cyano-2-fluorophenyl)-5-[3-(difluoromethyl)pyridin-2-yl]-1H-pyrrole-3-sulfonamide]: 5000 to 50000 nM; `Cc1noc(C)c1-c1cc(S(=O)(=O)Nc2cc(F)c(C(F)(F)F)cc2F)c[nH]1` [Cpd 582, N-[2,5-difluoro-4-(trifluoromethyl)phenyl]-5-(3,5-dimethyl-1,2-oxazol-4-yl)-1H-pyrrole-3-sulfonamide]: 500 to 5000 nM.
As to `N#Cc1cc(F)c(NS(=O)(=O)c2c[nH]cc2Cc2ccc(F)cc2)cc1F` [Cpd 584, N-(4-cyano-2,5-difluorophenyl)-4-[(4-fluorophenyl)methyl]-1H-pyrrole-3-sulfonamide], the IC50 was less than 500 nM.
Regarding `N#Cc1cc(F)c(NS(=O)(=O)c2c[nH]cc2Cc2cccc(F)c2)cc1F` [Cpd 585, N-(4-cyano-2,5-difluorophenyl)-4-[(3-fluorophenyl)methyl]-1H-pyrrole-3-sulfonamide], the IC50 is less than 500 nM.
Regarding `N#Cc1cc(F)c(NS(=O)(=O)c2c[nH]cc2Cc2cccc(C3CC3)c2)cc1F` [Cpd 586, N-(4-cyano-2,5-difluorophenyl)-4-[(3-cyclopropylphenyl)methyl]-1H-pyrrole-3-sulfonamide], the IC50 fell in the range of 500 to 5000 nM.
